# Patent US5350866A, “10-desacetoxytaxol derivatives” (Bristol-Myers Squibb Company, priority 1992, dated 1994)
# Experiments:
# [1] = test system: HCT-116 human colon carcinoma cells; assay: In vitro cytotoxicity (XTT assay), HCT-116; details: HCT-116, 72 h, read-out: IC50 HCT-116
# [2] = test system: HCT-116/VM46 human colon carcinoma cells; assay: In vitro cytotoxicity (XTT assay), teniposide-resistant, multidrug resistance phenotype HCT-116/VM46
SMILES,IC50 [1] [nM],"IC50 ([2]; Homo sapiens, HCT-116/VM46, 72 h, read-out: IC50 HCT-116/VM46) [nM]","fold resistance relative to HCT116 cells ([2]; value in parenthesis, HCT-116/VM46 relative to HCT116 cells, 4320 min)"
CC(=O)O[C@@]12CO[C@@H]1C[C@H](O)[C@@]1(C)C(=O)CC3=C(C)[C@@H](OC(=O)[C@H](O)[C@@H](NC(=O)c4ccccc4)c4ccccc4)C[C@@](O)([C@@H](OC(=O)c4ccccc4)[C@H]21)C3(C)C [10-Desacetoxytaxol],8,,
CC(=O)O[C@H]1C(=O)[C@@]2(C)[C@H]([C@H](OC(=O)c3ccccc3)[C@]3(O)C[C@H](OC(=O)[C@H](O)[C@@H](NC(=O)c4ccccc4)c4ccccc4)C(C)=C1C3(C)C)[C@]1(OC(C)=O)CO[C@@H]1C[C@@H]2O [Taxol],4,440,124
